Laboratory results reported in PubChem BioAssay (NCI).
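Values below derive from 48-hour exposures of cells grown in 96-well plates, with endpoints linearly interpolated between the two concentrations bracketing the appropriate inhibition level. The concentration for 50% growth inhibition is given as GI50. TGI: total growth inhibition.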

How the values were obtained:
Experiment in all cases: NCI tumour cell line growth inhibition, 48 h
RPMI-8226 leukemia = system: RPMI-8226 leukemia
EKVX NSCLC = system: EKVX NSCLC
MOLT-4 leukemia = system: MOLT-4 leukemia
HCT-116 colon = system: HCT-116 colon
COLO 205 colon = system: COLO 205 colon
MDA-MB-435 = system: MDA-MB-435
MDA-MB-231 breast = system: MDA-MB-231 breast
DU-145 prostate = system: DU-145 prostate
MCF7 breast = system: MCF7 breast
SR leukemia = system: SR leukemia

O=C(CC1SC(=Nc2ccccc2Cl)NC1=O)Nc1ccc(Cl)cc1Cl (stereo not drawn)
TGI (RPMI-8226 leukemia): > 100 µM | TGI (EKVX NSCLC): > 100 µM | TGI (MOLT-4 leukemia): > 100 µM | TGI (HCT-116 colon): > 100 µM | TGI (COLO 205 colon): > 100 µM

Cc1ccc(-c2nc([P+](c3ccccc3)(c3ccccc3)c3ccccc3)c(S(=O)(=O)c3ccc(C)cc3)o2)cc1
GI50 (MDA-MB-435): 1.56 µM | TGI (MDA-MB-435): 3.04 µM | GI50 (EKVX NSCLC): 1.21 µM | TGI (EKVX NSCLC): 2.98 µM | GI50 (MDA-MB-231 breast): 1.52 µM | TGI (MDA-MB-231 breast): 2.93 µM | GI50 (MOLT-4 leukemia): 1.06 µM | TGI (MOLT-4 leukemia): 4.63 µM | GI50 (DU-145 prostate): 1.27 µM | TGI (DU-145 prostate): 2.52 µM | GI50 (HCT-116 colon): 1.37 µM | TGI (HCT-116 colon): 2.75 µM | GI50 (MCF7 breast): 1.52 µM | TGI (MCF7 breast): 3.83 µM | GI50 (COLO 205 colon): 1.71 µM | TGI (COLO 205 colon): 4.28 µM

N#CC(c1ccccn1)c1nc2ccccc2[nH]1 (stereo not drawn)
TGI (RPMI-8226 leukemia): > 100 µM | TGI (EKVX NSCLC): > 100 µM | TGI (SR leukemia): > 100 µM | TGI (MOLT-4 leukemia): > 100 µM | TGI (HCT-116 colon): > 100 µM | TGI (COLO 205 colon): > 100 µM

C[CH2][Sn]([CH2]C)([O]C(=O)c1ccccc1OC)[O][Sn]([CH2]C)([CH2]C)[O]C(=O)c1ccccc1OC
GI50 (EKVX NSCLC): > 100 µM | TGI (EKVX NSCLC): > 100 µM | GI50 (SR leukemia): > 100 µM | TGI (SR leukemia): > 100 µM | GI50 (MOLT-4 leukemia): > 100 µM | TGI (MOLT-4 leukemia): > 100 µM | GI50 (HCT-116 colon): > 100 µM | TGI (HCT-116 colon): > 100 µM | GI50 (COLO 205 colon): > 100 µM | TGI (COLO 205 colon): > 100 µM

Cc1ccc(NC(=O)CC2C(=O)Nc3ccccc3S2(=O)=O)c(C)c1 (stereo not drawn)
TGI (RPMI-8226 leukemia): 43.4 µM | TGI (EKVX NSCLC): > 100 µM | TGI (SR leukemia): 19.1 µM | TGI (MOLT-4 leukemia): 28.7 µM | TGI (HCT-116 colon): 24.9 µM

C=CNC(=O)NC(=O)CSc1nnc(-c2ccccc2NC(=O)C(F)(F)F)c(=O)[nH]1
TGI (EKVX NSCLC): > 100 µM | TGI (SR leukemia): > 100 µM | TGI (MOLT-4 leukemia): > 100 µM | TGI (HCT-116 colon): > 100 µM | TGI (COLO 205 colon): > 100 µM

NC(=O)c1csc(C2OC(COP(=O)(O)CP(=O)(O)OCC3OC(n4cnc5c(N)ncnc54)C(O)C3O)C(O)C2O)n1 (stereo not drawn)
TGI (RPMI-8226 leukemia): > 100 µM | TGI (EKVX NSCLC): > 100 µM | TGI (MOLT-4 leukemia): > 100 µM | TGI (COLO 205 colon): > 100 µM

COc1cc2c(cc1OC)-c1ncc3c(OC)c(OC)c(OC)cc3c1C2
GI50 (RPMI-8226 leukemia): 2.5 µM | TGI (RPMI-8226 leukemia): 32.3 µM | GI50 (MDA-MB-231 breast): 0.404 µM | TGI (MDA-MB-231 breast): 11.6 µM | GI50 (SR leukemia): 0.609 µM | TGI (SR leukemia): 2.47 µM | GI50 (HCT-116 colon): 8.81 µM | TGI (HCT-116 colon): 64.7 µM | GI50 (MCF7 breast): 4.14 µM | TGI (MCF7 breast): 18.7 µM | GI50 (COLO 205 colon): > 100 µM | TGI (COLO 205 colon): > 100 µM

O=C(O)/C=C/c1nc2ccccc2c(=O)o1
TGI (RPMI-8226 leukemia): > 100 µM | TGI (EKVX NSCLC): > 100 µM | TGI (MOLT-4 leukemia): > 100 µM | TGI (HCT-116 colon): > 100 µM | TGI (COLO 205 colon): > 100 µM

c1ccc(CCc2cccnc2)nc1
TGI (RPMI-8226 leukemia): > 100 µM | TGI (MDA-MB-435): > 100 µM | TGI (EKVX NSCLC): > 100 µM | TGI (MDA-MB-231 breast): > 100 µM | TGI (SR leukemia): > 100 µM | TGI (MOLT-4 leukemia): > 100 µM | TGI (HCT-116 colon): > 100 µM | TGI (MCF7 breast): > 100 µM | TGI (COLO 205 colon): > 100 µM

N#CCCN1C/C(=C/c2ccc(Cl)cc2)C(=O)/C(=C/c2ccc(Cl)cc2)C1
GI50 (RPMI-8226 leukemia): 0.255 µM | TGI (RPMI-8226 leukemia): 0.795 µM | GI50 (MDA-MB-435): 1.37 µM | TGI (MDA-MB-435): 2.99 µM | GI50 (MDA-MB-231 breast): 2.01 µM | TGI (MDA-MB-231 breast): 7.44 µM | GI50 (MOLT-4 leukemia): 1.94 µM | TGI (MOLT-4 leukemia): 8.39 µM | GI50 (DU-145 prostate): 1.9 µM | TGI (DU-145 prostate): 4.2 µM | GI50 (HCT-116 colon): 0.25 µM | TGI (HCT-116 colon): 0.59 µM | GI50 (MCF7 breast): 0.42 µM | TGI (MCF7 breast): 2.81 µM | GI50 (COLO 205 colon): 1.25 µM | TGI (COLO 205 colon): 2.64 µM

O=S(=O)(c1cccc(N=C=S)c1)c1cccc(N=C=S)c1
TGI (RPMI-8226 leukemia): 83.9 µM | TGI (EKVX NSCLC): > 100 µM | TGI (MOLT-4 leukemia): 30.6 µM | TGI (HCT-116 colon): 32 µM | TGI (COLO 205 colon): 38.1 µM

C[N+](C)(C)CC1CCCC1=O (stereo not drawn)
TGI (RPMI-8226 leukemia): 11.2 µM | TGI (MDA-MB-435): 3.22 µM | TGI (EKVX NSCLC): 4.62 µM | TGI (MDA-MB-231 breast): 2.77 µM | TGI (MOLT-4 leukemia): 4.4 µM | TGI (DU-145 prostate): 0.0951 µM | TGI (HCT-116 colon): 3.74 µM | TGI (COLO 205 colon): 2.99 µM

C/C(=C\c1cnc(C)s1)[C@@H]1C[C@@H]2O[C@@H]2CCC[C@H](C)[C@H](O)[C@@H](C)C(=O)C(C)(C)[C@@H](O)CC(=O)O1
GI50 (RPMI-8226 leukemia): < 0.01 µM | TGI (RPMI-8226 leukemia): > 100 µM | GI50 (EKVX NSCLC): 0.0127 µM | TGI (EKVX NSCLC): > 100 µM | GI50 (MDA-MB-231 breast): < 0.0148 µM | TGI (MDA-MB-231 breast): > 100 µM | GI50 (SR leukemia): < 0.01 µM | TGI (SR leukemia): > 100 µM | GI50 (MOLT-4 leukemia): < 0.01 µM | TGI (MOLT-4 leukemia): > 100 µM | GI50 (DU-145 prostate): < 0.01 µM | TGI (DU-145 prostate): > 100 µM | GI50 (HCT-116 colon): < 0.01 µM | TGI (HCT-116 colon): > 100 µM | GI50 (MCF7 breast): < 0.01 µM | TGI (MCF7 breast): > 100 µM | GI50 (COLO 205 colon): < 0.01 µM | TGI (COLO 205 colon): 0.0304 µM

COCOCC/C=C/C=O
TGI (RPMI-8226 leukemia): > 100 µM | TGI (EKVX NSCLC): > 100 µM | TGI (SR leukemia): > 100 µM | TGI (MOLT-4 leukemia): > 100 µM | TGI (HCT-116 colon): > 100 µM | TGI (COLO 205 colon): > 100 µM

C#CCNC(=O)[C@H](CC)[C@H]1CC[C@H](C)[C@H]([C@@H](C)[C@H](O)[C@H](C)C(=O)[C@H](CC)C2O[C@]3(C=CC(=O)[C@]4(CC[C@@](C)([C@H]5CC[C@](O)(CC)[C@H](C)O5)O4)O3)[C@H](C)C[C@@H]2C)O1 (stereo partly drawn)
GI50 (RPMI-8226 leukemia): 1.77 µM | TGI (RPMI-8226 leukemia): 4.9 µM | GI50 (EKVX NSCLC): 2.59 µM | TGI (EKVX NSCLC): > 100 µM | GI50 (MDA-MB-231 breast): 1.92 µM | TGI (MDA-MB-231 breast): 5.14 µM | GI50 (SR leukemia): 1.61 µM | TGI (SR leukemia): 5.37 µM | GI50 (MOLT-4 leukemia): 2.44 µM | TGI (MOLT-4 leukemia): 8.76 µM | GI50 (DU-145 prostate): 2.41 µM | TGI (DU-145 prostate): 6.32 µM | GI50 (HCT-116 colon): 2.43 µM | TGI (HCT-116 colon): 7.66 µM | GI50 (MCF7 breast): 2.67 µM | TGI (MCF7 breast): 12.2 µM | GI50 (COLO 205 colon): 1.84 µM | TGI (COLO 205 colon): 3.52 µM
